Data published in publication PMC6063804 (EJNMMI Research, 2018).
Read-outs that look alike come from different tables or passages of the source.

What was measured:
NMDA-R = test system: NMDA-R; design: method as in PMID 26661185; conditions: humans; intravenous ketamine 0.3 mg · kg^−1; on average; cited from earlier work
PCP binding site = conditions: cited from earlier work
ion channel site = test system: ion channel site; design: method as in PMID 26325093; conditions: displacement binding studies; cited from earlier work
ion channel of NMDA-R = biological target: ion channel of NMDA-R; design: method as in PMID 25648682; conditions: unlabelled compounds; rat forebrain membranes; read-out: concentrations that inhibit specific binding of [^3H]MK-801; cited from earlier work
NMDA-R ion channel site = test system: NMDA-R ion channel site; design: method as in PMID 26325093; conditions: rats, 3 mg ∙ kg^−1 IV, cited from earlier work
[1] = Plasma ketamine concentration during PET; format: in vivo, human
Text: The final arterial plasma input function was derived using both continuous and discrete arterial blood data. The input function was corrected for plasma to whole blood ratio, metabolites, and time delay. For each scan, two additional plasma input functions were generated to investigate the effect of within-subject and between-subject variability in plasma data. For the within-subject averaged input function, the mean of PET1 and PET2 [^18F]PK-209 parent fractions per subject were used at each of the eight sample timepoints for both scans. For the population-averaged input function, the mean parent fractions for all five subjects in the TRT and ketamine groups (i.e., 10 scans) were taken at each timepoint. The manual arterial blood samples were also used for assessment of the plasma ketamine concentration. The area under the ketamine concentration–time curve was estimated by means of the trapezoidal rule.
(§1) The (S+)-isomer of ketamine (0.5 mg · kg^−1) was dissolved in NaCl 50 mL and administered intravenously in a pseudo-steady state model with a sub-acute loading dose. First, ketamine was administered for 40 min at a rate of 0.006 mg · kg^−1 · min^−1 followed by a 130 min equilibrium phase at 0.002 mg · kg^−1 · min^−1. [^18F]PK-209 injection and start of PET were performed at 10 min into the equilibrium phase, following 0.26 mg · kg^−1 administration in the preceding 50 min.

[2] = Tolerability of ketamine infusion; format: in vivo, human
Method: as §1

[3] = design: method as in PMID 18176855; conditions: 1.1 mg ∙ kg^−1 S-ketamine over 75 min; cited from earlier work

For COc1cccc(N(C)C(=N)Nc2cc(SC)ccc2Cl)c1 [[^11C]GMOM, [11C]N-(2-chloro-5-thiomethylphenyl)-N′-(3-methoxy-phenyl)-N′-methylguanidine], the “reduction of radiotracer net influx rate (Ki) in whole brain gray matter” value (NMDA-R) is listed as 66%.

In the case of CSc1cccc(N(C)C(N)=Nc2cc(SCC[18F])ccc2Cl)c1 [[^18F]GE-179], the “block of the PET signal by cold GE-179” value (PCP binding site; GE-179 0.6 mg ∙ kg^−1 at steady state, bolus-plus-infusion, anesthetized non-human primates) is listed as “did not significantly block the PET signal” and the “specificity of the PET signal” value (PCP binding site; preclinical in vivo evaluation) is listed as “largely non-specific”.

For C[C@]12N[C@H](Cc3ccccc31)c1ccccc12 [MK-801], the “potency relative to (±)ketamine at the ion channel site” value (ion channel site) is given as “two orders of magnitude more potent”.

For COc1cccc(N(C)C(=N)Nc2cc(SC)ccc2Cl)c1 [GMOM, reference compound], the K i (ion channel of NMDA-R) is given as 21.7 nM.

For CNC1(c2ccccc2Cl)CCCCC1=O (racemic) [(±)ketamine], the “inhibition of [^3H]MK-801 binding” value (NMDA-R ion channel site; 1 min post-dosing) is given as 67% and the “inhibition of [^3H]MK-801 binding” value (NMDA-R ion channel site; 20 min post-dose) is given as 19%.

With CNC1(c2ccccc2Cl)CCCCC1=O (stereo not drawn) [ketamine] the “mean plasma ketamine concentration, plateau” value ([1]; between 20 and 60 min after the start of PET, 0.5 mg ∙ kg^−1 infusion) was ~ 100 ng ∙ mL^−1, the “mean plasma ketamine concentration” value ([1]; end of the scan, 160 min since the start of infusion) was ~ 70 ng ∙ mL^−1 and the tolerability ([2]; S-ketamine 0.5 mg · kg^−1 intravenous infusion, healthy subjects) was “well tolerated by all subjects”. For the same molecule, the feelings of dissociation ([2]; at the start of PET scanning) was “reported by all subjects” and the mean plasma concentration [3] was 173 ng/mL.
